Measured values from US20200239530A1, “COMPOUNDS AND METHODS OF MODULATING PROTEIN DEGRADATION” (Vividion Therapeutics, Inc., priority 2017, published 2020).

Experiments:
Assay in all cases: Cysteine liganding, probe competition
Format in all cases: binding
UniProt Q96EP0 = biological target: T1, UniProt Q96EP0 (Homo sapiens, UniProt Q96EP0); details: 500 uM
T1 construct: 200 μL of lysate containing 5 mg/ml proteome was treated with 2 μL of 100× compound stock; endogenous in cells
Source text: (§1) The following 96-well sample prep protocol was used for sample preparation.

UniProt Q9NRJ4 = biological target: T2, UniProt Q9NRJ4 (Homo sapiens, UniProt Q9NRJ4); details: read-out: KB02_100 uM_percent_inhibition
T2 construct: 200 μL of lysate containing 5 mg/ml proteome was treated with 2 μL of 100× compound stock; endogenous in cells
Source text: as §1

[1] = biological target: T3, FLYWCH2 FLYWCH family member 2 (Homo sapiens, UniProt Q96CP2)
T3 construct: 200 μL of lysate containing 5 mg/ml proteome was treated with 2 μL of 100× compound stock; endogenous in cells
T3 sequence (Q96CP2 1-140): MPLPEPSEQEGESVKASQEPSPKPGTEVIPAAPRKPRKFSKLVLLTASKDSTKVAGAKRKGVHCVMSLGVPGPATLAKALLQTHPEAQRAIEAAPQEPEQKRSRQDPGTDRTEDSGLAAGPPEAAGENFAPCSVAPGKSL
Method in brief: (§2)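 Probe competition in native proteome: 5 mg/ml lysate, compound 1 hr 25° C, then desthiobiotin iodoacetamide (10 mM stock) 1 hr 25° C; acetone ppt, urea/DTT reduction, iodoacetamide alkylation, trypsin, streptavidin pull-down.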

SQSTM1 Sequestosome-1 = biological target: T4, SQSTM1 Sequestosome-1 (Homo sapiens, UniProt Q13501)
T4 construct: Cells were resuspended in cold PBS on ice and sonicated with a probe sonicator to achieve lysis; endogenous in cells
Method in brief: as §2

[2] = biological target: T5, ANAPC7 Anaphase-promoting complex subunit 7 (Homo sapiens, UniProt Q9UJX3)
T5 construct: Cells were resuspended in cold PBS on ice and sonicated with a probe sonicator to achieve lysis; endogenous in cells
Method in brief: as §2

[3] = biological target: T6, UNC93B1 Protein unc-93 homolog B1 (Homo sapiens, UniProt Q9H1C4)
T6 construct: Cells were resuspended in cold PBS on ice and sonicated with a probe sonicator to achieve lysis; endogenous in cells
T6 sequence (Q9H1C4 1-597): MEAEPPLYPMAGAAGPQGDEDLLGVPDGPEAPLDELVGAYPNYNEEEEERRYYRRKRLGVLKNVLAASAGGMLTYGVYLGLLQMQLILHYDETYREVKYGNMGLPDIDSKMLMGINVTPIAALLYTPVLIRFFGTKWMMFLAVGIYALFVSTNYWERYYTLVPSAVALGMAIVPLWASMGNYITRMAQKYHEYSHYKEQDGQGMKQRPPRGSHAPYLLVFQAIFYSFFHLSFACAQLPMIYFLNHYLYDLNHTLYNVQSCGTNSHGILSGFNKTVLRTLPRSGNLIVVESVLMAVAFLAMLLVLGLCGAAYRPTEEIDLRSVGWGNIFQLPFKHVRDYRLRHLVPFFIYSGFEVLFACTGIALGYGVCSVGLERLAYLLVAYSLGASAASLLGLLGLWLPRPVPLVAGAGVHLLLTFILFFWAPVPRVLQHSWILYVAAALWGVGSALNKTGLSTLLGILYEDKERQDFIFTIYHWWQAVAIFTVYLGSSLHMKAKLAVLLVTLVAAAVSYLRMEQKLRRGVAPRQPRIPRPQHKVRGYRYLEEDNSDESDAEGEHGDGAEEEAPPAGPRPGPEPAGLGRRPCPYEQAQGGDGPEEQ
Method in brief: as §2

UniProt Q5VTB9 = biological target: T7, UniProt Q5VTB9 (Homo sapiens, UniProt Q5VTB9); details: read-out: percent_inhibition
T7 construct: 200 μL of lysate containing 5 mg/ml proteome was treated with 2 μL of 100× compound stock; endogenous in cells
Source text: as §1

UniProt Q9C037 = biological target: T8, UniProt Q9C037 (Homo sapiens, UniProt Q9C037); details: read-out: KB05_100 uM_percent_inhibition
T8 construct: 200 μL of lysate containing 5 mg/ml proteome was treated with 2 μL of 100× compound stock; endogenous in cells
Source text: as §1

T5 sequence (Q9UJX3 whole entry, one chain of several): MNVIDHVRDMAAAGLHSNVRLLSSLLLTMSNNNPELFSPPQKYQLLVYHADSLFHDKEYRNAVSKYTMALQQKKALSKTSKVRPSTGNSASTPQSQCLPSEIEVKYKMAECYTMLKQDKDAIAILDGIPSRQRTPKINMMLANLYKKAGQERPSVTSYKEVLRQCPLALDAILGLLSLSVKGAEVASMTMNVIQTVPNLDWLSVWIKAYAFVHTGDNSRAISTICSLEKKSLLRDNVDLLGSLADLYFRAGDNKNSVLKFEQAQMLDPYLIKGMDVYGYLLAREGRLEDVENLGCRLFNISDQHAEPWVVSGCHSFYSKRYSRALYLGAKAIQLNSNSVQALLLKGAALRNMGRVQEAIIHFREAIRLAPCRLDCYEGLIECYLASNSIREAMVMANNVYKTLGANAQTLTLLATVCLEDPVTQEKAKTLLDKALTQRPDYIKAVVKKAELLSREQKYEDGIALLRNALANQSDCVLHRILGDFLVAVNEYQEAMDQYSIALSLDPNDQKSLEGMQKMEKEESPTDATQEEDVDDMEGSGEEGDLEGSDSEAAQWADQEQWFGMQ
T4 sequence (Q13501 whole entry): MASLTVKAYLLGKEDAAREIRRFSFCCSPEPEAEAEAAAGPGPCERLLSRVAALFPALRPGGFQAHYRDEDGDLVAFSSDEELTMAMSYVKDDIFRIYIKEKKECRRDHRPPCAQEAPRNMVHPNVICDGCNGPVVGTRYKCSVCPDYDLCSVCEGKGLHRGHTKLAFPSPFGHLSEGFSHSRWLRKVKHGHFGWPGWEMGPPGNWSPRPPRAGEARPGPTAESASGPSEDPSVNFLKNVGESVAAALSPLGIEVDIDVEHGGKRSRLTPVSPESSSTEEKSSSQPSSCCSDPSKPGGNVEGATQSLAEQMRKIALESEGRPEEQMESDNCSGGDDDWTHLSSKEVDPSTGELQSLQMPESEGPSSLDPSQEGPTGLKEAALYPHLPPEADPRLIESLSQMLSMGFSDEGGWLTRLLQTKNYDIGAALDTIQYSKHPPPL
T1 sequence (Q96EP0 whole entry, change not shown): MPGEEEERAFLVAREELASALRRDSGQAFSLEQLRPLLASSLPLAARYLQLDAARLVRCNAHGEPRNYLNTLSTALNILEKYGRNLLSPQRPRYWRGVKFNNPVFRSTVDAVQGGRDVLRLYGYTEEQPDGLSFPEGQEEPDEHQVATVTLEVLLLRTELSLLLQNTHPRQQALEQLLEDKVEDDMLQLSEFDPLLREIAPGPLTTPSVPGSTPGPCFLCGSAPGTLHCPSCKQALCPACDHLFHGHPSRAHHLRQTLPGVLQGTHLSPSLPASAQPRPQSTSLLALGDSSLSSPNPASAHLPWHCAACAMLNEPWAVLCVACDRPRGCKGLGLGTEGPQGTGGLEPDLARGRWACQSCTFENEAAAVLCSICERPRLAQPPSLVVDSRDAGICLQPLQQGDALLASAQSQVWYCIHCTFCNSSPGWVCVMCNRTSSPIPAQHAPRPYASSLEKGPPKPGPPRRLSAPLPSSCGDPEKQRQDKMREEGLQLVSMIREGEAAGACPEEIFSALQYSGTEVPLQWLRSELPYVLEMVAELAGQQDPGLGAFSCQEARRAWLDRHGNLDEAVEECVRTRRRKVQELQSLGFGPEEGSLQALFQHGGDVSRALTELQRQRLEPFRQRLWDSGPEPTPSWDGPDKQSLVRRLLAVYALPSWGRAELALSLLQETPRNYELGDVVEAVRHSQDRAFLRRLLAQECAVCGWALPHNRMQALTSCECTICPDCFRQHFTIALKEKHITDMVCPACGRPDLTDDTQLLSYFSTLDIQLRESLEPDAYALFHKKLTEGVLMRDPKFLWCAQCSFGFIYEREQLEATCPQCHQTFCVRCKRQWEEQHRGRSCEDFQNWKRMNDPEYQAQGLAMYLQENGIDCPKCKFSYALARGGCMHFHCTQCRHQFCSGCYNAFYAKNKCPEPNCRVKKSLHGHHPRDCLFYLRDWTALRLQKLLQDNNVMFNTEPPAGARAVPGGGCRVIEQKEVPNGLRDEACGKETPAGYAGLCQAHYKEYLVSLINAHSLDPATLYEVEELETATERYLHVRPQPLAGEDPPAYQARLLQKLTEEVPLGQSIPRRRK
T2 sequence (Q9NRJ4 whole entry, change not shown): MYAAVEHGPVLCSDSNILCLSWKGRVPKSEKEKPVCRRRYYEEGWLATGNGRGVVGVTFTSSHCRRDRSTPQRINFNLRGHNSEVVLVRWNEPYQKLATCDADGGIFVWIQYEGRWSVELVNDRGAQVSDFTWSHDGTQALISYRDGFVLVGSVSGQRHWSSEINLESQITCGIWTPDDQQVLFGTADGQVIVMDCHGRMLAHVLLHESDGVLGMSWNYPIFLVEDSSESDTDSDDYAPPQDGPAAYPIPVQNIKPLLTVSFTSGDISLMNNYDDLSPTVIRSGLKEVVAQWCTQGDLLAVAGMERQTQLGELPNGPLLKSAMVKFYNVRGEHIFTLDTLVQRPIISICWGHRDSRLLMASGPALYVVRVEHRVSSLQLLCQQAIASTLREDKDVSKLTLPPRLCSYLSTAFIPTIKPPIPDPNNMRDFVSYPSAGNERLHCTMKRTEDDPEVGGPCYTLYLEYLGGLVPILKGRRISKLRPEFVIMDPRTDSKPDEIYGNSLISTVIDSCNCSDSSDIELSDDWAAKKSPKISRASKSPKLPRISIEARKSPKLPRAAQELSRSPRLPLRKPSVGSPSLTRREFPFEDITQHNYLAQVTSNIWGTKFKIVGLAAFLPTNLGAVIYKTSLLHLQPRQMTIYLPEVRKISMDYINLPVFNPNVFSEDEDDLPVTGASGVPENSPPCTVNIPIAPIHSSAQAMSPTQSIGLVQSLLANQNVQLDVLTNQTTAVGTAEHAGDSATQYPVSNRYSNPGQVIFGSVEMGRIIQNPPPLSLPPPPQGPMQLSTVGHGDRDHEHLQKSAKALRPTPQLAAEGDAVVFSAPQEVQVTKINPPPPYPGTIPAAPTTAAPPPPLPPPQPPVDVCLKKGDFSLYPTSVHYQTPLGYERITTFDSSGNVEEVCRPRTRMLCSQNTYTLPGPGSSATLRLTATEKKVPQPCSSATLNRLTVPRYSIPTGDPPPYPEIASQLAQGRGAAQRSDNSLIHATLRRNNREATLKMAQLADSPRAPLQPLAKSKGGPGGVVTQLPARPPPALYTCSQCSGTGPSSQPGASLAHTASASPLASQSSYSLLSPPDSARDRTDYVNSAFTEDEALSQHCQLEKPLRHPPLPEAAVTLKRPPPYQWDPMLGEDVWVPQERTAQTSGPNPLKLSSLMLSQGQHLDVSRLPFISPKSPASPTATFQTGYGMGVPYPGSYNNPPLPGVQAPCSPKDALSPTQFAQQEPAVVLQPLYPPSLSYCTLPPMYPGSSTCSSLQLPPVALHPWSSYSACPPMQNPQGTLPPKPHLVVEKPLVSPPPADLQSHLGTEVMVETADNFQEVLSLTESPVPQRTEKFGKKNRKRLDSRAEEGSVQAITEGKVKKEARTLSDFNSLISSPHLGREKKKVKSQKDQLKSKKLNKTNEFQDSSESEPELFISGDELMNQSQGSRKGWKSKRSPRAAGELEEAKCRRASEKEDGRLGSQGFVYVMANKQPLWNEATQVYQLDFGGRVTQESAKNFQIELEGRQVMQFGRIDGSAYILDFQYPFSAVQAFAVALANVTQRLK
T8 sequence (Q9C037 whole entry, change not shown): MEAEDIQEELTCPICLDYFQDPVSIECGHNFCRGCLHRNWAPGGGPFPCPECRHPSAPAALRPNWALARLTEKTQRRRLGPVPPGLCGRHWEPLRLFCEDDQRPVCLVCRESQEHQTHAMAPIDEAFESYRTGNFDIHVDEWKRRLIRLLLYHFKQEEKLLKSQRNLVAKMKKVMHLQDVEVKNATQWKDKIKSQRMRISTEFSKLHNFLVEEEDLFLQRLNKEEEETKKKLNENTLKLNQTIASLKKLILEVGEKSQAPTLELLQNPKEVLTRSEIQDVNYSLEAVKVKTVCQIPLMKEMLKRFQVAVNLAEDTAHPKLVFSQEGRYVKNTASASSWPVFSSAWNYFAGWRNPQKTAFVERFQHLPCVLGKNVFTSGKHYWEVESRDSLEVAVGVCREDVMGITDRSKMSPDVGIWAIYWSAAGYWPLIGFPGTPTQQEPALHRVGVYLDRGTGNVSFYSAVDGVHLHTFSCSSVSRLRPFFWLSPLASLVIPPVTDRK
T7 sequence (Q5VTB9 whole entry, change not shown): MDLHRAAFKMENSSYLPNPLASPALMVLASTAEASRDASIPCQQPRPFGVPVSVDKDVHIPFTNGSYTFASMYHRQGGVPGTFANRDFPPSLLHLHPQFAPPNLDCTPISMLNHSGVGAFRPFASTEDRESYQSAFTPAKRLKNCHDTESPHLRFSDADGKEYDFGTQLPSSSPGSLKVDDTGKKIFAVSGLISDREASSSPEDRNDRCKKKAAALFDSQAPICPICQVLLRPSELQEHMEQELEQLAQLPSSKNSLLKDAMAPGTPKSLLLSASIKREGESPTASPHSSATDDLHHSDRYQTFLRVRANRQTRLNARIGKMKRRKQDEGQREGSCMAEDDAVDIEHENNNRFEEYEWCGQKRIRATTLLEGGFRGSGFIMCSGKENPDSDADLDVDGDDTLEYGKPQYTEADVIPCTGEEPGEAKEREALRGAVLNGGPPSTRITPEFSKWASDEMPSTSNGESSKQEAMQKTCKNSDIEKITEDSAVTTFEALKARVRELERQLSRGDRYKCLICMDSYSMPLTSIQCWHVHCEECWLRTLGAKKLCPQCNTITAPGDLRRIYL

`COc1ccc2c(c1)CCCN2C(=O)CCl` [KB02] was tested, and the percent_inhibition (UniProt Q96EP0) was 24%, the inhibition at 100 µM (UniProt Q9NRJ4) was 28% and the Liganded ([1]; FLYWCH2 Res# 64, uniprot Q96CP2) was “YES”. For the same compound, the Liganded (SQSTM1 Sequestosome-1; SQSTM1 Res# 131, uniprot Q13501) was “YES”, the Liganded ([2]; ANAPC7 Res# 329, uniprot Q9UJX3) was “YES” and the Liganded ([3]; UNC93B1 Res# 583, uniprot Q9H1C4) was “YES”.
`C=CC(=O)N(c1ccccc1)c1ccc(Br)cc1` [KB05] gave an inhibition at 100 µM (UniProt Q5VTB9) of 2% and an inhibition at 100 µM (UniProt Q9C037) of 11%.
For `O=C(CCl)Nc1cc(C(F)(F)F)cc(C(F)(F)F)c1` [KBO3], the “100 Max” value ([1]; uniprot Q96CP2) was 12.97, the 100 ave ([1]; uniprot Q96CP2) was 2.25 and the “500 Max” value ([1]; uniprot Q96CP2) was 41.66. For the same compound, the 500 ave ([1]; uniprot Q96CP2) was 41.635, the “100 Max” value (SQSTM1 Sequestosome-1; uniprot Q13501) was 11.89 and the 100 ave (SQSTM1 Sequestosome-1; uniprot Q13501) was −14.15. The “500 Max” value (SQSTM1 Sequestosome-1; uniprot Q13501) was 56.86, the 500 ave (SQSTM1 Sequestosome-1; uniprot Q13501) was 54.29 and the “100 Max” value ([2]; uniprot Q9UJX3) was 60.9. For the same compound, the 100 ave ([2]; uniprot Q9UJX3) was 47.5, the “500 Max” value ([2]; uniprot Q9UJX3) was 73.4 and the 500 ave ([2]; uniprot Q9UJX3) was 68.4. For the same compound, the “100 Max” value ([3]; uniprot Q9H1C4) was 29.9385, the 100 ave ([3]; uniprot Q9H1C4) was 13 and the 500 ave ([3]; uniprot Q9H1C4) was 70.38. For the same compound, the “500 Max” value ([3]; uniprot Q9H1C4, in % (unit assumed)) was 72.3195.
